Experimental data taken from publication PMC8400540, “Synthesis, Biological Evaluation, and In Silico Studies of New Acetylcholinesterase Inhibitors Based on Quinoxaline Scaffold” (Molecules, 2021).
Where two headings read alike, the source gives them in different places.

Columns and labels:
[1] = biological target: T1, human recombinant acetylcholinesterase (HuAChE) (Homo sapiens, UniProt P22303); assay: biochemical; conditions: for Selectivity BChE/AChE: Selectivity index for AChE: IC50 BChE/IC50 AChE
T1 construct: purchased Sigma-Aldrich

[2] = biological target: T2, butyrylcholinesterase from equine serum (EqBChE) (Equus caballus, UniProt P81908); assay: biochemical; format: biochemical; conditions: for inhibition at 100 µM / IC50: mean ± SD; for inhibition at 100 µM: n = three, read-out: %Inhibition BChE; for IC50: EqBChE, n = three independent experiments; for butyrylcholinesterase inhibitory activity (in words): screened at 100 µM
T2 construct: butyrylcholinesterase from equine serum (eqBChE); purchased Sigma-Aldrich; host or cells: equine serum
Method: Initially, acetylcholinesterase and butyrylcholinesterase inhibitory activities of the compounds were screened at the concentration of 100 µM. […] The raw data of IC50 in this study were able to be accessed in Supplementary Materials.
Human recombinant acetylcholinesterase (HuAChE), butyrylcholinesterase from equine serum (eqBChE), acetylthiocholine iodide (ATCI), butyrylthiocholine iodide (BTCI) and 5,5′-dithiobis(2-nitrobenzoic acid) (DTNB) were gained from Sigma-Aldrich. Assays of acetyl- and butyrylcholinesterase inhibitory activity were performed according to Ellman’s method described previously. Briefly, these assays were performed as follows. The reaction mixture (250 µL), containing 50 µL of buffer (50 mM Tris-HCl buffer (pH 8.0), 0.1 M NaCl, 0.02 M MgCl2.6H2O), 25 µL of 1.5 mM of ATCI or BTCI, 25 µL of 100 µM of test compounds in EtOH and 125 µL of 3 mM DTNB were added. Then, 25 µL of HuAChE and equine serum of BChE in 50 mM Tris-HCl buffer containing 0.1% (w/v) BSA (pH 8.0). Reactions were initiated by the addition of the enzyme into the medium. […] Each experiment was repeated in triplicate.
The percentage of enzyme inhibitory activity (%Inhibition) was calculated by the following expression: %Inhibition = ((Mean velocity of blank-Mean velocity of sample) × 100)/Mean velocity of blank.

[3] = Cytotoxicity, sulforhodamine B (SRB) assay; format: cell-based; conditions: human, SH-SY5Y neuroblastoma cells, up to 100 µM, read-out: LC50
Method: Selected compounds in the series were then evaluated for their cytotoxicity against SH-SY5Y neuron cells. […].
Figure 3 The cytotoxic effect of synthesized compounds on SH-SY5Y cells as determined by SRB assay. Cells were treated with the synthesized compounds at different concentrations for 48 h, and then SRB assay was performed. Data are means ± SD of three independent experiments, and %cell viability was calculated relative to nontreated control.
The cytotoxicity assay of the tested compounds against human SH-SY5Y neuroblastoma cells was measured using a sulforhodamine B (SRB) assay. The cells were cultured in Dulbecco’s modified Eagle’s medium supplemented with 10% fetal bovine serum (Gibco, Paisley, UK) and grown at 37 °C in a humid atmosphere containing 5% CO2. Cells (10,000 cells/well) were seeded in a 96-well plate and incubated at 37 °C, 5% CO2 for 24 h. The cells were then treated with or without various concentrations (0, 3.125, 6.25, 12.5, 25, 50, and 100 μM) of each compound for 48 h. After an incubation period, 40% (w/v) trichloroacetic acid (TCA) was added to the cells, and the cells were then incubated at 4 °C for 1 h. A total of 0.4% (w/v) SRB solution (100 μL) was added to each well, and the cells were incubated for 1 h at room temperature. The SRB solution was removed, and then the cells were washed three times with 1% (v/v) acetic acid, and they were allowed to dry at room temperature. The protein-bound dye was dissolved with 10 mM Tris base solution, and the absorbance was measured at 492 nm using a microplate reader.

Human recombinant AChE = biological target: T3, Human recombinant AChE (Homo sapiens, UniProt P22303); assay: Enzyme kinetic study of AChE inhibition (Lineweaver-Burk); format: biochemical
T3 construct: purchased Sigma-Aldrich
Method: […]. The kinetic assay of AChE inhibition was carried out at 0, 30, 50 and 60 µM of compound 6c. […]. [ATCI], substrate concentration (µM); V, reaction velocity (1/V (abs/min)^−1).
Kinetic studies of HuAChE were performed by Ellman’s method as described above. […]. Kinetic characterization of the hydrolysis of ATCI for HuAChE was carried out spectrometrically at 405 nm every 11 s for 2 min. A parallel control was run with the assay solution without inhibitor. The inhibition was evaluated by Lineweaver–Burk plot from substrate concentrations range between 10 to 250 µM for ATCI and inhibitor concentrations (0, 30, 50, 60 µM). The type of inhibition (competitive, uncompetitive, noncompetitive and mixed type inhibition) was calculated from the Michaelis–Menten equation was converted to Lineweaver–Burk equation into a straight line by plotting 1/velocity opposite to 1/[S]. Graphs were plotted by means of GraphPad Prism 7.03 for Windows (GraphPad Software, San Diego, CA, USA, www.graphpad.com, accessed on 13 May 2021).
From obtained equations of regression curves in the Lineweaver-Burk plot, the values of maximum velocity (Vm) and Michealis constant (Km) were calculated. Using non-linear regression (selected panel: enzyme kinetic inhibition/ mixed model inhibition) the values of Ki and alpha were determined. The alpha value defines the mechanism. […]

[4] = HuAChE, mean ± SD, n = three independent experiments, read-out: IC50 AChE

T2 sequence (P81908 whole entry): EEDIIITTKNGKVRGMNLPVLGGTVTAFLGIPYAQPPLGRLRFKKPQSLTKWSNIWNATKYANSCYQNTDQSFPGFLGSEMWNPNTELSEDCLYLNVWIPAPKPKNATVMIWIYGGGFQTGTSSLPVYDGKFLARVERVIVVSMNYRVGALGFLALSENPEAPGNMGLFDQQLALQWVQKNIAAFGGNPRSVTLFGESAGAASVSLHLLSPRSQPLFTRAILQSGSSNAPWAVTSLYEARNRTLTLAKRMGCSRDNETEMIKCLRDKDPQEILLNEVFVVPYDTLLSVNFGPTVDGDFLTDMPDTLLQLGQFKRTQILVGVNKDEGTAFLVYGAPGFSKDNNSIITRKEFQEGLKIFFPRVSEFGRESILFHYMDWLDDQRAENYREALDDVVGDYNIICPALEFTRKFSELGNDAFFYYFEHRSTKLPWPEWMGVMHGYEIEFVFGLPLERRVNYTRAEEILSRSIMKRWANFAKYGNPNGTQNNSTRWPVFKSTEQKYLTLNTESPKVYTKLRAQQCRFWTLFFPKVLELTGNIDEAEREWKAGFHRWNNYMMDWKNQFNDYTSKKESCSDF
T1 sequence (P22303 32-614): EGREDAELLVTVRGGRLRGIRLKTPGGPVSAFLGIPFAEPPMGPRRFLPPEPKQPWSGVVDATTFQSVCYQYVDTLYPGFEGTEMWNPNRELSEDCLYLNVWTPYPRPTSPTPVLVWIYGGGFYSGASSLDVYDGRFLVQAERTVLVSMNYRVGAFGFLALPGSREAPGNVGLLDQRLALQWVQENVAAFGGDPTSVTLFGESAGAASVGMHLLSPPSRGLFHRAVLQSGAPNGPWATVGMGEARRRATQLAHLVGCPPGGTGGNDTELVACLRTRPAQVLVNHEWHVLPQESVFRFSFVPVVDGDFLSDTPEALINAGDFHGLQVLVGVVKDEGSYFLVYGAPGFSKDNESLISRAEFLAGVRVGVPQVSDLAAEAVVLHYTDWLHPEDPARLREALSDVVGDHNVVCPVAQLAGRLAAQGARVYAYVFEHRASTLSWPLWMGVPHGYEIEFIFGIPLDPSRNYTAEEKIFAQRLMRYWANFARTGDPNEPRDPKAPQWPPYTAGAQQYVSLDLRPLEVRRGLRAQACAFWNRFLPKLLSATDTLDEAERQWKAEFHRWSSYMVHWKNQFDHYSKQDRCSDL
T3 sequence (P22303 32-614): as above

| Compound | IC50 [1, 4] [µM] | inhibition at 100 µM [2] [%] | Selectivity BChE/AChE [1] | IC50 [2] [µM] | IC50 [1] [µM] | butyrylcholinesterase inhibitory activity (in words) [2] | also measured |
| --- | --- | --- | --- | --- | --- | --- | --- |
| Clc1ccc2ncc(-c3ccccc3)nc2c1 [Compound 4b, 7-Chloro-2-phenylquinoxaline] | 28.5 ± 1.6 | 41.2 | – | – | – | – | – |
| Nc1ccc2ncc(-c3ccccc3)nc2c1 [Compound 6b, 3-Phenylquinoxalin-6-amine] | 1.31 ± 0.2 | 44.1 | – | – | – | – | CC50 at 48 h [3]: > 100 µM |
| O=[N+]([O-])c1ccc2ncc(-c3ccccc3)nc2c1 [Compound 5b, 7-Nitro-2-phenylquinoxaline] | 39 ± 0.8 | – | 1.56 | 61 ± 3.4 | – | – | – |
| Cc1nc2ccccc2nc1C [Compound 3c, 2,3-Dimethylquinoxaline] | – | 23.4 | – | – | 7.25 ± 1.5 | no activity | – |
| c1ccc2nccnc2c1 [Compound 3a, Quinoxaline] | – | – | 3.07 | 40.6 ± 1.6 | 13.2 ± 4.1 | – | – |
| Cc1nc2ccc(N)cc2nc1C [Compound 6c, 2,3-Dimethylquinoxalin-6-amine] | 0.077 ± 0.01 | 29.2 | – | – | – | no activity | type of AChE inhibition (Human recombinant AChE; Lineweaver-Burk plot): mixed-type inhibitor; Alpha (Human recombinant AChE; non-linear regression, mixed model inhibition): 0.1875; CC50 at 48 h [3]: > 100 µM |
| O=[N+]([O-])c1ccc2nccnc2c1 [Compound 5a, 6-Nitroquinoxaline] | 21.3 ± 1.5 | – | 1.97 | 42 ± 1 | – | – | – |
| Cc1nc2ccc(Cl)cc2nc1C [Compound 4c, 6-Chloro-2,3-dimethylquinoxaline] | 10.7 ± 1.4 | 37.4 | – | – | – | no activity | – |
| Clc1ccc2nccnc2c1 [Compound 4a, 6-Chloroquinoxaline] | – | 37.4 | – | – | 23.9 ± 1.3 | – | – |
| Nc1ccc2nccnc2c1 [Compound 6a, Quinoxalin-6-amine] | – | 32.9 | – | – | 0.74 ± 0.5 | – | CC50 at 48 h [3]: > 100 µM |
| Cc1nc2ccc([N+](=O)[O-])cc2nc1C [Compound 5c, 2,3-Dimethyl-6-nitroquinoxaline] | 8.42 ± 1.8 | 32.1 | – | – | – | no activity | – |
| c1ccc(-c2cnc3ccccc3n2)cc1 [Compound 3b, 2-Phenylquinoxaline] | 50.1 ± 2.6 | – | 0.29 | 14.9 ± 2.6 | – | – | – |
